Data set [1] concerns the target T1, CASTOR1 (Homo sapiens, UniProt Q8WTX7).
T1 construct: full-length human CASTOR1, N-terminal 6×His-tag (homodimer)
T1 sequence (Q8WTX7 1-329): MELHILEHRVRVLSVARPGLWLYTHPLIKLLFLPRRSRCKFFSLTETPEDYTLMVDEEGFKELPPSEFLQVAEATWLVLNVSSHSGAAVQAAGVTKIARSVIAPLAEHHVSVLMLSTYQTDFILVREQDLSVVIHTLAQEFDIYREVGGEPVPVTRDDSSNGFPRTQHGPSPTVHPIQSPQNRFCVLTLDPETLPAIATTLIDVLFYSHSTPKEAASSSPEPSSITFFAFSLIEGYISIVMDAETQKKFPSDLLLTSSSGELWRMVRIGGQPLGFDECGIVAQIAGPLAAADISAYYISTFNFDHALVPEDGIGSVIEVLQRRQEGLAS
Briefly: ITC. It is filed as binding.

For data set [2], the target named is T2, CASTOR1 (Homo sapiens, UniProt Q8WTX7, S111A).
T2 construct: full-length human CASTOR1, N-terminal 6×His-tag
T2 sequence (Q8WTX7 1-329 S111A): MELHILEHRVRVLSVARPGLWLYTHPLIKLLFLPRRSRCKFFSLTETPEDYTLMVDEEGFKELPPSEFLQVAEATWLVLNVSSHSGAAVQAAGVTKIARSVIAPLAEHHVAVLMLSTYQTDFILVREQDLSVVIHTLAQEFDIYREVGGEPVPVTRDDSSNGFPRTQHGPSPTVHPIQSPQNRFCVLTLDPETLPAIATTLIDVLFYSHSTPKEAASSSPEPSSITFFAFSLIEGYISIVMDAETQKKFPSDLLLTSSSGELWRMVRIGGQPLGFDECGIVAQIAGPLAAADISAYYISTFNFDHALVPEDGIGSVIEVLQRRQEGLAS
Briefly: ITC. The class given is binding.

For data set [3], the target named is T3, Full-length human Mios with an N-terminal GST tag (human, UniProt Q9NXC5 1-875).
T3 construct: Mios, human, full length, in pGEX4T-1; the methods describe only GST-Mios for the Ni2+-NTA pull-down; also called GST-Mios; purified Mios protein; not shown: GST, N-terminal, kept
T3 sequence (looked up): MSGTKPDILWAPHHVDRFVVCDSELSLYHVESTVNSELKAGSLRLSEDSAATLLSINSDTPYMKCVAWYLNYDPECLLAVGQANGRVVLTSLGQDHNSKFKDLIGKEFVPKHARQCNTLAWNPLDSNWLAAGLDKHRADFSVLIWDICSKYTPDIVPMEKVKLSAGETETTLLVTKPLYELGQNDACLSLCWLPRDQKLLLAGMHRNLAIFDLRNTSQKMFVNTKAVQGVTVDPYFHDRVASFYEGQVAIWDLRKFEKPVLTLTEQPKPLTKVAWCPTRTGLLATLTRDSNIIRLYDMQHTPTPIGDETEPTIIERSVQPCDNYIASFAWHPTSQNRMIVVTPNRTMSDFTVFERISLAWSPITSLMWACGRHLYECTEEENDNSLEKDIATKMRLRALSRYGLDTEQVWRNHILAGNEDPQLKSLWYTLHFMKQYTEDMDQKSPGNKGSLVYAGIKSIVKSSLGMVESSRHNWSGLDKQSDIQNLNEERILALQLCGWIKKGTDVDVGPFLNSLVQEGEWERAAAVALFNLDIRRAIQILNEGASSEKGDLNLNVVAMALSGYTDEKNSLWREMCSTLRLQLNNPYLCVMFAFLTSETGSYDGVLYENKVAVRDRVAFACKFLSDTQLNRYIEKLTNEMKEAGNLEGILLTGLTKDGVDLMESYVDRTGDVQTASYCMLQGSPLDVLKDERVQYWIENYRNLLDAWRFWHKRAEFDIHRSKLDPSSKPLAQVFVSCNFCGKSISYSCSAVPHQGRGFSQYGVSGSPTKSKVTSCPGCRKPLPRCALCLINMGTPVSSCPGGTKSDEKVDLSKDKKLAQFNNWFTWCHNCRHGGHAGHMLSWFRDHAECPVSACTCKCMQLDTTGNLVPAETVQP
As to the kind of experiment: pull-down; Ni2+-NTA column pull-down: His-CASTOR1 pre-immobilised on the Ni2+-NTA column, GST-Mios (or another purified GATOR2 subunit) added at 4 °C; wash 25 mM Tris, pH 8.0, 300 mM NaCl, 20 mM imidazole; elution with 500 mM imidazole; SDS-PAGE and Coomassie Blue staining. To be noted: both partners purified.

Data set [4] deals with the molecule itself. As to the kind of experiment: SEC-MALS; 25 °C; about 400 μg protein injected per run; 15 mM Tris-HCl, pH 8.0, 150 mM NaCl, 2 mM DTT; WTC-015S5 column. A general note: SEC sorts molecules by how far they enter the pores of the column.

Usually Kd stands for the constant that tells how readily two partners part at equilibrium. A lower Kd goes with a tighter complex. On to `N=C(N)NCCC[C@H](N)C(=O)O` [arginine], for which the Kd turned out to be 2.23 µM in data set [1] and 9.68 µM in data set [2].

B1: Full-length human CASTOR1, wild type, N-terminal 6xHis-tag (natural protein, UniProt Q8WTX7 1-329, looked up)
chain: MELHILEHRVRVLSVARPGLWLYTHPLIKLLFLPRRSRCKFFSLTETPEDYTLMVDEEGFKELPPSEFLQVAEATWLVLNVSSHSGAAVQAAGVTKIARSVIAPLAEHHVSVLMLSTYQTDFILVREQDLSVVIHTLAQEFDIYREVGGEPVPVTRDDSSNGFPRTQHGPSPTVHPIQSPQNRFCVLTLDPETLPAIATTLIDVLFYSHSTPKEAASSSPEPSSITFFAFSLIEGYISIVMDAETQKKFPSDLLLTSSSGELWRMVRIGGQPLGFDECGIVAQIAGPLAAADISAYYISTFNFDHALVPEDGIGSVIEVLQRRQEGLAS
notes: CASTOR1, human, full length (residues 1-329 by the domain limits printed in the results); cDNA chemically synthesized, in pET28a; Dimer in the crystal and by SEC-MALS; also called WT CASTOR1; His-CASTOR1; source: E. coli BL21(DE3), purified (Ni2+-NTA, Superdex 200 gel filtration); not shown: His6, N-terminal, kept
Broadly, the stoichiometry N is the number of molecules, sites or subunits per partner or assembly. As to B1, the binding result in data set [3] is “binds”. The “stoichiometry N” value in data set [4] came to 2.
